Test results taken from US20250154144A1 (CHILDREN'S HOSPITAL MEDICAL CENTER, priority 2021, published 2025).
Like-named read-outs stand apart in the source and are kept apart here.

Experiments:
MOLM14 D835Y cells = test: cells; assay type: cell-based; conditions: 48 hours, Cell Titer Glo, read-out: MOLM14 D835Y IC50
MOLM14 F691L cells = test: cells; assay type: cell-based; conditions: 48 hours, Cell Titer Glo, read-out: MOLM14 F691L IC50
FLT3 = biological target: T1, FLT3 (Homo sapiens, UniProt P36888); test: RBC HotSpot Kinase Assay, FLT3
T1 sequence (P36888 610-943 limits assumed): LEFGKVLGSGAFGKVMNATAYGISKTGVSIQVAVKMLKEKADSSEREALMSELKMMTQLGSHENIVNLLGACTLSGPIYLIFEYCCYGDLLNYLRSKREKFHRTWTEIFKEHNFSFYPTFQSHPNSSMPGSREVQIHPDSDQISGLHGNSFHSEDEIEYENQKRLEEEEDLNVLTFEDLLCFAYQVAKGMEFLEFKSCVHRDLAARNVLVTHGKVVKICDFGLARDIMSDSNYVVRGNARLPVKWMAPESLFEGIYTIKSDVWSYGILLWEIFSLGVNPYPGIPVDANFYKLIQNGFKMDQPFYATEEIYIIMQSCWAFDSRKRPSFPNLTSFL

IRAK1 = IRAK1 (Homo sapiens, UniProt P51617); test: RBC HotSpot Kinase Assay, IRAK1; conditions: IRAK1 IC50
Sequence of IRAK1 (P51617 whole entry): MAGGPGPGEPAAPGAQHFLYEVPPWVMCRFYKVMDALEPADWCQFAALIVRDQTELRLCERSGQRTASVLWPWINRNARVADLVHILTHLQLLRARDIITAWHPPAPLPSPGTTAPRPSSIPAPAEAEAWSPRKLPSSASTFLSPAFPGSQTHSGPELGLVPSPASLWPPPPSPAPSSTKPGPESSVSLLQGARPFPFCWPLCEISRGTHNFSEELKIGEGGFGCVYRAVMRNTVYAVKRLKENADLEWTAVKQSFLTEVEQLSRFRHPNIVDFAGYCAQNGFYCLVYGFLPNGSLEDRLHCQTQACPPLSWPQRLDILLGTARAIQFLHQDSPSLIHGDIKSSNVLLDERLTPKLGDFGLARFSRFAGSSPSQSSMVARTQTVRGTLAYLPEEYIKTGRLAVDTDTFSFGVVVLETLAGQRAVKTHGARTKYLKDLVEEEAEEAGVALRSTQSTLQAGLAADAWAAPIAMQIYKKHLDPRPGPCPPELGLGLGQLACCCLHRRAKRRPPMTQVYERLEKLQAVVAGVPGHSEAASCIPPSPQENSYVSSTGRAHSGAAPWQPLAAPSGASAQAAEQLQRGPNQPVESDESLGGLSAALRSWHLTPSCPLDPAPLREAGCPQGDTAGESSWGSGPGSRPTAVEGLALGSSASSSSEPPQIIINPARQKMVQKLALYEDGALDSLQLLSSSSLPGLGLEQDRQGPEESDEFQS

IRAK4 = biological target: T2, IRAK4 (Homo sapiens, UniProt Q9NWZ3); test: RBC HotSpot Kinase Assay, IRAK4; conditions: IRAK4 IC50
T2 sequence (Q9NWZ3 1-460): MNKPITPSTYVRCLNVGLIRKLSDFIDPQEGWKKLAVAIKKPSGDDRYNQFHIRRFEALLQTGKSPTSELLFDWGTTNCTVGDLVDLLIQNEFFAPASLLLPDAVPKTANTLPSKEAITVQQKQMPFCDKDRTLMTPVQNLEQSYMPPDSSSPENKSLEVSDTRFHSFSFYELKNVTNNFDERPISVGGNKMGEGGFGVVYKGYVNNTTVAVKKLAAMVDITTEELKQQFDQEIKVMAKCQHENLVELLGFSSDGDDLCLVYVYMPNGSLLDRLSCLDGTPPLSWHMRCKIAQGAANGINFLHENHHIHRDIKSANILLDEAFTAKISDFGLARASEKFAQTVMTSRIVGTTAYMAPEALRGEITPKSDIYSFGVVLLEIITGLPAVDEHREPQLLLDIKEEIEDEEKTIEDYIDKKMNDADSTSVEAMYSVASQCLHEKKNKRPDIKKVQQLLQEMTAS

**Q.** What does the source list for `CC(O)(c1cn2c(-c3cncc(N[C@@H]4CCCNC4)n3)cnc2cn1)C(F)(F)F` (single isomer, unassigned) [Compound 73]?
**A.** IC50 (MOLM14 D835Y cells): 0.612 µM; IC50 (MOLM14 F691L cells): 0.969 µM; IC50 (FLT3; FLT3 IC50): 0.008 µM; IC50 (IRAK1): 0.091 µM; IC50 (IRAK4): 0.037 µM

**Q.** Which IC50 (MOLM14 D835Y cells; Homo sapiens, MOLM-14, 48 h) does the source give for `COc1ccn2c(-c3cncc(N[C@H]4CNC[C@@H]4F)n3)cnc2c1` [Compound 4, N-((3S,4S)-4-fluoropyrrolidin-3-yl)-6-(7-methoxyimidazo[1,2-a]pyridin-3-yl)pyrazin-2-amine] here?
**A.** 0.077 µM

**Q.** And the IC50 (MOLM14 F691L cells; Homo sapiens, MOLM-14, 48 h)?
**A.** 0.244 µM

**Q.** What about the IC50 (FLT3; FLT3 IC50) of the same compound?
**A.** < 0.0005 µM

**Q.** And the IC50 (IRAK1)?
**A.** 0.029 µM

**Q.** What about the IC50 (IRAK4) of the same compound?
**A.** 0.002 µM

**Q.** What does the source list for `COc1ccn2c(-c3ccnc(N[C@@H]4CCCNC4)n3)cnc2c1` [Compound 29, (R)-4-(7-methoxyimidazo[1,2-a]pyridin-3-yl)-N-(piperidin-3-yl)pyrimidin-2-amine]?
**A.** IC50 (MOLM14 D835Y cells; Homo sapiens, MOLM-14, 48 h): 0.012 µM; IC50 (MOLM14 F691L cells; Homo sapiens, MOLM-14, 48 h): 0.109 µM; IC50 (FLT3; FLT3 IC50): < 0.0005 µM; IC50 (IRAK1): 0.013 µM; IC50 (IRAK4): < 0.0005 µM

**Q.** `c1cc(-c2cnc3cc(OC4CC4)ccn23)nc(N[C@@H]2CCCNC2)n1` [Compound 38, (R)-4-(7-cyclopropoxyimidazo [1,2-a]pyridin-3-yl)-N-(piperidin-3-yl)pyrimidin-2-amine] was tested. Which IC50 (MOLM14 D835Y cells; Homo sapiens, MOLM-14, 48 h) did it give?
**A.** 0.022 µM

**Q.** What about the IC50 (MOLM14 F691L cells; Homo sapiens, MOLM-14, 48 h) of the same compound?
**A.** 0.193 µM

**Q.** What about the IC50 (FLT3; FLT3 IC50) of the same compound?
**A.** < 0.0005 µM

**Q.** What about the IC50 (IRAK1) of the same compound?
**A.** 0.06 µM

**Q.** What about the IC50 (IRAK4) of the same compound?
**A.** 0.006 µM

**Q.** Which IC50 (MOLM14 D835Y cells; Homo sapiens, MOLM-14, 48 h) does the source give for `CC(C)Oc1ccn2c(-c3nccc(N[C@H]4CNC[C@@H]4F)n3)cnc2c1` [Compound 52, N-((3S,4S)-4-fluoropyrrolidin-3-yl)-2-(7-isopropoxyimidazo[1,2-a]pyridin-3-yl)pyrimidin-4-amine] here?
**A.** 0.473 µM

**Q.** And the IC50 (MOLM14 F691L cells; Homo sapiens, MOLM-14, 48 h)?
**A.** 7.5 µM

**Q.** What about the IC50 (FLT3; FLT3 IC50) of the same compound?
**A.** 0.005 µM

**Q.** What about the IC50 (IRAK1) of the same compound?
**A.** 0.961 µM

**Q.** What about the IC50 (IRAK4) of the same compound?
**A.** 0.042 µM

**Q.** How did the IC50 (MOLM14 D835Y cells; Homo sapiens, MOLM-14, 48 h) turn out when `CC(O)(c1cn2c(-c3ccnc(N[C@@H]4CCCNC4)n3)cnc2cn1)C(F)(F)F` (single isomer, unassigned) [Compound 67] was run?
**A.** 0.137 µM

**Q.** What about the IC50 (MOLM14 F691L cells; Homo sapiens, MOLM-14, 48 h) of the same compound?
**A.** 0.77 µM

**Q.** What about the IC50 (FLT3; FLT3 IC50) of the same compound?
**A.** < 0.0005 µM

**Q.** What about the IC50 (IRAK1) of the same compound?
**A.** 0.031 µM

**Q.** What about the IC50 (IRAK4) of the same compound?
**A.** 0.022 µM

**Q.** Which results are given for `CC(O)(c1cn2c(-c3ccnc(N[C@H]4CNC[C@@H]4F)n3)cnc2cn1)C(F)(F)F` (single isomer, unassigned) [Compound 71]?
**A.** IC50 (MOLM14 D835Y cells): 0.069 µM; IC50 (MOLM14 F691L cells): 0.686 µM; IC50 (FLT3; read-out: FLT3 IC50): < 0.0005 µM; IC50 (IRAK1): 0.005 µM; IC50 (IRAK4): < 0.0005 µM
